For assay [1], the system named is T84 human colon adenocarcinoma cell line. Briefly: Antiproliferative SRB assay of nanoparticles and isolated compounds in T84 cells. The format is cell-based. The settings on record: T84, isolated compound, 72 h. The procedure: The human colon adenocarcinoma cell line T84was purchased from the American Type Culture Collection (Rockville, MD, USA). The non-tumor colon cell line CCD18 (human colon epithelial cell line) was used as control. All cell lines were grown in Dulbecco’s Modified Eagle’s Medium (DMEM) supplemented with 10% heat-inactivated fetal bovine serum (FBS) and ATB (antibiotic, streptomycin + amphotericin B) at 1% and maintained in an incubator at 37° C. and 5% CO2 humidified atmosphere.
Cells were seeded in 48-well plates with DMEM (Dulbecco’s modified Eagles Medium) (300 ul) at a density of 4 x 10^3 cells/well in CCD18 and 5 x 10^3 cells/well in T84. After 24 hours, cell cultures were exposed 72 h to increasing concentrations of the nanoparticles dissolved in DMEM. In addition, bioactive components of the extract, Esculetin (range from 0.1 µg/ml to 5 µg/ml) and Euphorbetin (range from 0.02 µg/ml to 0.7 µg/ml), were combined at different concentration in order to determine their antitumor activity and to compare with nanoparticle activity and ethanolic extract activity. After incubation time, cells were fixed with trichloroacetic acid (TCA) at 10% for 20 minutes at 4° C. […] Finally, the optical density (OD) at 492 nm was measured in a spectrophotometer. Cell survival (%) was calculated according to the following equation: […]

In assay [2] the test system is 15 in vitro models with tumor cells. The settings on record: 15 in vitro tumor cell models; read-out: inhibitory dose 50 (IC50); cited from earlier work.

Values after ≈ are worked out from the molar mass of the structure shown.

`O=c1ccc2cc(O)c(O)cc2o1` [Esculetin, esculetin] gave an IC50 in assay [1] of 0.27 µg/mL (≈ 1.52 µM).
As for `CC(C)=CCC[C@@H](C)[C@@H]1CC[C@]2(C)C3=C(CC[C@@]12C)[C@@]1(C)CC[C@H](O)C(C)(C)[C@@H]1CC3` [Euphol], in assay [2], the half-inhibitory concentration (IC50) is 2 to 30 µM.

(Values after patent publication US20230190704A1, “DRUG DELIVERY SYSTEM BASED ON CALCIUM PHOSPHATE NANOPARTICLES FUNCTIONALIZED WITH BIOACTIVE COMPOUNDS FROM EUPHORBIA EXTRACT AND THE USES THEREOF” (CELLBITEC, S.L., priority 2020, published 2023).)
